These results are taken from US8455505B2, “Pyrrolopyrimidinedione and its therapeutic use” (Chiesi Farmaceutici S.p.A., priority 2009, dated 2013).

Series [1] relates to HNE Induced Lung Haemorrhage in the Rat. Description: HNE induced lung haemorrhage in the rat. Format: in vivo. Particulars: 100 μg/kg i.t., 6 hours prior to HNE, free base, statistically significant. An excerpt: HNE Induced Lung Haemorrhage in the Rat
Instillation of human neutrophil elastase (HNE) into rat lung causes acute lung damage. The extent of this injury can be assessed by measuring lung haemorrhage.
Male Sprague Dawley rats (175-220 g) were obtained from Harlan UK Ltd., full barrier-bred and certified free from specified micro-organisms on receipt. Animals were weighed and randomly assigned to treatment groups (7-12 animals to per group).
The vehicle used was 1% DMSO/Saline. Inhibitors were dissolved in 1% DMSO before the addition of 0.9% saline.
Animals in each study used to determine the efficacy of the elastase inhibitors delivered locally to the lung by a variety of routes. […]
Once defrosted 100 μl of each lysed cell suspension was placed into a separate well of a 96 well flat bottomed plate. […] The OD of the contents of each well was measured at 415 nm using a spectramax 250 (Molecular devices). […]
The amount of blood in each experimental sample was calculated by comparison to the standard curve. Data were then analysed as below: • 1) The mean OD for duplicates was calculated • 2) The value for the blank was subtracted from the value for all other samples • 3) Data were assessed to evaluate the normality of distribution.

A short description of series [2]: PK assay: half life in the lung after intra-tracheal administration. Format: in vivo. As to conditions: rat, other: intra-tracheal, 10 ug/kg; male Sprague-Dawley rats, single intra-tracheal dose 10 μg/Kg, lung homogenate; free base; read-out: terminal lung t1/2 (converted). How it is done: Comparison of the Half Lives in the Lung of the Compound of the Invention and the Compound of Example 18 of WO2007/129060
Test material was formulated at 20 μg/mL in 0.2% Tween 80 in saline. Solutions were sonicated and warmed in a water bath at 40° C. prior to dosing. Male Sprague-Dawley rats received a single intra-tracheal administration of the test material via a Penn-Century dosing needle at the nominal dose level of 10 μg/Kg. After dosing five rats from each group were terminally anaesthetized with sodium pentobarbitone at 1, 2, 4, 8, 24, 72 and 96 hours for compound (IA) (free base) and 1, 4, 8, 24, 72, 96, 168, 264 and 336 for compound (II) (free base) post dose. Blood was sampled from the tail vein, following which the chest was opened, the animal exanguinated by perfusion and the lungs removed and snap frozen. After collection the blood samples were centrifuged (10000×g, 2 min at 4° C.). Plasma was removed and both stored frozen at −20° C. Rat lungs were homogenised in water (on ice) to give a ratio of 1 part lung:2 parts water (w/v). A 100 μL aliquot of each homogenate was extracted by addition of 200 μL acetonitrile containing an analytical internal standard. […]
Test material was analysed on a triple quadrupole mass spectrometer (AB Sciex API 3000) fitted with LC pump and autosampler (Reliance). Test material was detected in positive ion mode Turbo Ion Spray. […]

A further series addresses T1, human leukocyte elastase (Homo sapiens, UniProt P08246).
T1 construct: purchased Sigma E8140
T1 sequence (P08246 30-247 limits assumed): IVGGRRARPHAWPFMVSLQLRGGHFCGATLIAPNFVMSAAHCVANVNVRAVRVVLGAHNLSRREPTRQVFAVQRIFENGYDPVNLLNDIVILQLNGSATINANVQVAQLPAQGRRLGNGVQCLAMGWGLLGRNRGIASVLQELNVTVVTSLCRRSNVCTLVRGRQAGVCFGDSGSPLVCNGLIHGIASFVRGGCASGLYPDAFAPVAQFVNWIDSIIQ
Nature of the series: Enzyme inhibition assay using fluorescent peptide substrate. Format: biochemical. Particulars: MeO-Suc-Ala-Ala-Pro-ValAMC substrate 100 μM, free base, means of two independent experiments. How it is done: Using Fluorescent Peptide Substrate
Assays were performed in 96-well plates at a total assay volume of 100 μl. The final concentration of the enzyme (human leukocyte elastase, Sigma E8140) was 0.00036 units/well. A peptide substrate (MeO-Suc-Ala-Ala-Pro-ValAMC (SEQ ID NO: 1), Calbiochem #324745) was used, at the final concentration of 100 μM. The final concentration of DMSO was 1% in the assay buffer (0.05M Tris.HCl, pH 7.5, 0.1M NaCl; 0.1M CaCl2; 0.0005% brij-35).
The enzymatic reaction was started by adding the enzyme. The enzymatic reaction was performed at RT and after 30 mins stopped by adding 50 μl soybean trypsin inhibitor (Sigma T-9003) at a final concentration of 50 μg/well. Fluorescence was read on the FLEXstation (Molecular Devices) using 380 nm excitation and 460 nm emission filters. […] The results are means of two independent experiments, each performed in duplicate.
The results are means of two independent experiments, each performed in duplicate.

As to `N#Cc1ccc([C@H]2NC(=O)N(c3cccc(C(F)(F)F)c3)C3=C2C(=O)N(CCCNCCCN2CC4=C(C2=O)[C@@H](c2ccc(C#N)nc2)NC(=O)N4c2cccc(C(F)(F)F)c2)C3)cn1` [Compound (IA)], the “reduction in haemorrhage relative to control” value in series [1] is given as 95%. In addition, the half-life in series [2] was 37 h. On human leukocyte elastase, this compound showed a half-maximal inhibitory concentration (IC50) of 8.4 nM.

`N#Cc1ccc([C@H]2NC(=O)N(c3cccc(C(F)(F)F)c3)C3=C2C(=O)N(CCCNCCCN2CC4=C(C2=O)[C@@H](c2ccc(C#N)cc2)NC(=O)N4c2cccc(C(F)(F)F)c2)C3)cc1` [Compound (II)]: in series [1], the “reduction in haemorrhage relative to control” value amounted to 88%. Also, the half-life in series [2] was 94 h. The IC50 against human leukocyte elastase was 2.1 nM.

The term IC50 denotes the midpoint of a concentration-inhibition curve. Read a high IC50 as lower potency.
